According to patent publication US9409952B2, “Peptide-compound cyclization method” (Chugai Seiyaku Kabushiki Kaisha, priority 2011, dated 2016):
Read-outs that look alike come from different tables or passages of the source. Starred links: 1 amine or outer side, 2 acyl side, 3 side chain; linkers in the order of their positions; H or OH if unused. Positions of bridges follow the written chain, without caps; N, C: chain ends. Non-standard residues stand in square brackets, D forms with d. Residues, ends and D or L forms follow the SMILES beside them. ξ: configuration not given here. *: point of attachment. Phe(4-(CH2)5CO) = O=C([C@H](Cc1ccc(CCCCCC(=O)[*:3])cc1)N[*:1])[*:2]; Phe(3-(CH2)4CO) = O=C([C@H](Cc1cccc(CCCCC(=O)[*:3])c1)N[*:1])[*:2]; NMeF = CN[C@@H](Cc1ccccc1)C(=O)O; NMeGABA = CN(CCCC(=O)[*:2])[*:1]; NMeI = CC[C@H](C)[C@H](NC)C(=O)O; NMeL = CN[C@@H](CC(C)C)C(=O)O; NMeV = CN[C@H](C(=O)O)C(C)C; NMeA = CN[C@@H](C)C(=O)O; Piperidide = C1CCN(*)CC1; dNMeA = CN[C@H](C)C(=O)O; ξP = O=C(O)C1CCCN1; Sar = CNCC(=O)O; tBu = CC(C)(C)*

How the values were obtained:
[1] = PAMPA (parallel artificial membrane permeability assay); format: in vitro ADME; details: PAMPA
Outline: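 Artificial membrane was 10% (w/v) egg lecithin plus 0.5% (w/v) cholesterol in dodecane on a PVDF filter. A 10 mM DMSO stock was added at 0.5% (v/v) to donor buffer (50 mM MOPSO, pH 6.5, 5.0% glycocholic acid). After 18 h at 37 °C, LC/MS or LC/UV gave donor and acceptor levels for Pe.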

[2] = Metabolic stability in human hepatic microsome; format: in vitro ADME; details: microsomes
[3] = membrane permeation rate (Pe), 50 mM MOPSO buffer pH 6.5 with 5.0% glycocholic acid, 37° C., 18 hours, read-out: iPAMPA Pe
[4] = pH 7.4, human hepatic microsome, NADPH(+), read-out: CL NADPH(+)

Compound | Papp at 18 hours, 50 µM [1, 3] | microsomal CLint at 1 uM [2, 4] | Papp at 18 hours, 50 µM ([1]; pH 6.5) | microsomal CLint at 1 uM ([2]; human, pH 7.4, CL NADPH(+))
CC(C)C[C@H]1C(=O)N(C)[C@@H](C(C)C)C(=O)N[C@@H](Cc2ccccc2)C(=O)N[C@H](C(=O)N(C)[C@@H](Cc2ccccc2)C(=O)N[C@@H](C)C(=O)N2CCCCC2)CC(=O)N(C)CCCC(=O)N[C@@H](C(C)C)C(=O)N(C)[C@@H](CC(C)C)C(=O)N[C@@H]([C@@H](C)O)C(=O)N(C)[C@@H](Cc2ccccc2)C(=O)NCC(=O)N1C [DP-372] ([NMeGABA]V[NMeL]T[NMeF]G[NMeL][NMeV]FD[NMeF]A-Piperidide; lactam N-10) | 420 nm/s | 78 µL/min/mg |  | 
CC(C)C[C@H]1C(=O)N[C@H](C(=O)N2CCCCC2)CC(=O)N(C)[C@H](C)C(=O)N(C)[C@@H](Cc2ccccc2)C(=O)N(C)[C@@H](CC(C)C)C(=O)N[C@@H]([C@@H](C)O)C(=O)N(C)[C@@H](CC(C)C)C(=O)N[C@@H](COC(C)(C)C)C(=O)N1C [DP-683] ([dNMeA][NMeF][NMeL]T[NMeL]S(tBu)[NMeL]D-Piperidide; lactam N-8) | 320 nm/s | 53 µL/min/mg |  | 
CC[C@H](C)[C@H]1C(=O)N[C@H](C(=O)N2CCCCC2)Cc2ccc(cc2)CCCCCC(=O)N[C@@H](CC(C)C)C(=O)N2CCC[C@H]2C(=O)N[C@@H](C(C)C)C(=O)N[C@@H](Cc2ccccc2)C(=O)N(C)CC(=O)N[C@@H](CC(C)C)C(=O)N[C@@H](C)C(=O)N1C [DP-879] (LPVF[Sar]LA[NMeI][Phe(4-(CH2)5CO)]-Piperidide; lactam N-9) | 350 nm/s | 239 µL/min/mg |  | 
CC[C@H](C)[C@@H]1NC(=O)[C@H](CC(C)C)N(C)C(=O)[C@H](Cc2ccccc2)NC(=O)[C@H]([C@@H](C)O)NC(=O)[C@H](CC(C)C)N(C)C(=O)[C@H](C(C)C)N(C)C(=O)[C@@H](C)N(C)C(=O)C[C@@H](C(=O)N2CCCCC2)NC(=O)[C@H](CC(C)C)NC(=O)[C@H](Cc2ccccc2)N(C)C1=O [DP-432] ([dNMeA][NMeV][NMeL]TF[NMeL]I[NMeF]LD-Piperidide; lactam N-10) | 260 nm/s | 396 µL/min/mg |  | 
CC(C)C[C@@H]1NC(=O)[C@H](CC(C)C)N(C)C(=O)[C@H]([C@@H](C)O)NC(=O)CCCN(C)C(=O)C[C@@H](C(=O)N2CCCCC2)NC(=O)[C@H](COC(C)(C)C)NC(=O)[C@H](Cc2ccccc2)N(C)C1=O [DP-715] ([NMeGABA]T[NMeL]L[NMeF]S(tBu)D-Piperidide; lactam N-7) | 240 nm/s | 134 µL/min/mg |  | 
CC[C@H](C)[C@@H]1NC(=O)[C@H](CC(C)C)N(C)C(=O)[C@H](CC(C)C)NC(=O)[C@H](Cc2ccccc2)NC(=O)[C@H]([C@@H](C)O)NC(=O)[C@H](Cc2ccccc2)NC(=O)[C@@H](C)N(C)C(=O)C[C@@H](C(=O)N2CCCCC2)NC(=O)CNC(=O)[C@H](Cc2ccccc2)NC1=O [DP-431] ([dNMeA]FTFL[NMeL]IFGD-Piperidide; lactam N-10) | 340 nm/s | 239 µL/min/mg |  | 
CC(C)C[C@H]1C(=O)N[C@@H](COC(C)(C)C)C(=O)N[C@H](C(=O)N2CCCCC2)CC(=O)N[C@H](C)C(=O)N(C)[C@@H](C)C(=O)N(C)[C@@H](Cc2ccccc2)C(=O)N(C)[C@@H](CC(C)C)C(=O)N[C@@H]([C@@H](C)O)C(=O)N(C)[C@@H](C)C(=O)N1C [DP-148] ([dA][NMeA][NMeF][NMeL]T[NMeA][NMeL]S(tBu)D-Piperidide; lactam N-9) |  |  | 310 nm/s | 69 µL/min/mg
CC(C)C[C@H]1C(=O)N[C@H](C(=O)N2CCCCC2)CC(=O)N[C@H](C)C(=O)N(C)[C@@H](Cc2ccccc2)C(=O)N(C)[C@@H](CC(C)C)C(=O)N[C@@H]([C@@H](C)O)C(=O)N(C)[C@@H](C)C(=O)N[C@@H](COC(C)(C)C)C(=O)N1C [DP-708] ([dA][NMeF][NMeL]T[NMeA]S(tBu)[NMeL]D-Piperidide; lactam N-8) | 160 nm/s | 35 µL/min/mg |  | 
CC(C)C[C@H]1C(=O)N(C)[C@@H](C)C(=O)N(C)[C@@H](C(C)C)C(=O)N[C@@H](C)C(=O)N[C@H](C(=O)N(C)[C@@H](Cc2ccccc2)C(=O)N(C)[C@@H](Cc2ccccc2)C(=O)N[C@@H](C)C(=O)N2CCCCC2)CC(=O)N(C)[C@H](C)C(=O)N(C)CC(=O)N[C@@H]([C@@H](C)O)C(=O)N(C)[C@@H](C)C(=O)N[C@@H](Cc2ccccc2)C(=O)N1C [DP-507] ([dNMeA][Sar]T[NMeA]F[NMeL][NMeA][NMeV]AD[NMeF][NMeF]A-Piperidide; lactam N-10) | 110 nm/s | 17 µL/min/mg |  | 
CC[C@H](C)[C@H]1C(=O)N[C@@H](C)C(=O)N(C)[C@@H](CC(C)C)C(=O)N[C@@H](COC(C)(C)C)C(=O)N(C)[C@@H](CC(C)C)C(=O)N[C@H](C(=O)N2CCCCC2)Cc2cccc(c2)CCCCC(=O)N[C@@H](Cc2ccccc2)C(=O)N(C)[C@@H](Cc2ccccc2)C(=O)N(C)[C@@H](CC(C)C)C(=O)N[C@@H]([C@@H](C)O)C(=O)N(C)[C@@H](C)C(=O)N1C [DP-874] (F[NMeF][NMeL]T[NMeA][NMeI]A[NMeL]S(tBu)[NMeL][Phe(3-(CH2)4CO)]-Piperidide; lactam N-11) | 1.5 nm/s | 48 µL/min/mg |  | 
CC(C)C[C@H]1C(=O)N[C@@H]([C@@H](C)O)C(=O)N(C)[C@@H](C)C(=O)N[C@@H](C(C)C)C(=O)N(C)[C@@H](C)C(=O)N(C)[C@@H](C)C(=O)N[C@H](C(=O)N(C)[C@@H](Cc2ccccc2)C(=O)N(C)[C@@H](Cc2ccccc2)C(=O)N[C@@H](C)C(=O)N2CCCCC2)CC(=O)N(C)[C@@H](C)C(=O)N(C)[C@@H](Cc2ccccc2)C(=O)N1C [DP-464] ([NMeA][NMeF][NMeL]T[NMeA]V[NMeA][NMeA]D[NMeF][NMeF]A-Piperidide; lactam N-9) | 250 nm/s | 30 µL/min/mg |  | 
CC(C)C[C@H]1C(=O)N(C)[C@@H](C)C(=O)N[C@@H]([C@@H](C)O)C(=O)N(C)[C@@H](C)C(=O)N[C@H](C(=O)N(C)[C@@H](Cc2ccccc2)C(=O)N[C@@H](C)C(=O)N2CCCCC2)CC(=O)N(C)[C@H](C)C(=O)N(C)[C@@H](Cc2ccccc2)C(=O)N(C)[C@@H](C)C(=O)N[C@@H](C(C)C)C(=O)N1C [DP-462] ([dNMeA][NMeF][NMeA]V[NMeL][NMeA]T[NMeA]D[NMeF]A-Piperidide; lactam N-9) | 95 nm/s | 17 µL/min/mg |  | 
CC(C)C[C@H]1C(=O)N[C@H](C(=O)N2CCCCC2)CC(=O)N[C@H](C)C(=O)N(C)[C@@H](CC(C)C)C(=O)N(C)[C@@H](Cc2ccccc2)C(=O)N(C)[C@@H](CC(C)C)C(=O)N[C@@H]([C@@H](C)O)C(=O)N1C [DP-740] ([dA][NMeL][NMeF][NMeL]T[NMeL]D-Piperidide; lactam N-7) | 310 nm/s | 483 µL/min/mg |  | 
CC(C)C[C@H]1C(=O)N(C)[C@@H](C)C(=O)N(C)[C@@H](Cc2ccccc2)C(=O)N[C@@H]([C@@H](C)O)C(=O)N(C)[C@@H](C)C(=O)N(C)[C@@H](Cc2ccccc2)C(=O)N(C)[C@@H](C)C(=O)N[C@H](C(=O)N(C)[C@@H](Cc2ccccc2)C(=O)N[C@@H](C)C(=O)N2CCCCC2)CC(=O)N(C)[C@@H](C)C(=O)N[C@@H](C)C(=O)N(C)[C@@H](C)C(=O)N1C [DP-445] ([NMeA]A[NMeA][NMeL][NMeA][NMeF]T[NMeA][NMeF][NMeA]D[NMeF]A-Piperidide; lactam N-11) | 110 nm/s | 14 µL/min/mg |  | 
C=C1CCC(=O)N[C@@H](C)C(=O)N(C)[C@@H](CC(C)C)C(=O)N[C@@H]([C@@H](C)CC)C(=O)N(C)[C@@H](Cc2ccccc2)C(=O)N(C)[C@@H](CC(C)C)C(=O)N(C)[C@@H](C(C)C)C(=O)N[C@@H](Cc2ccccc2)C(=O)N[C@@H]([C@@H](C)O)C(=O)N[C@H](C(=O)N2CCCCC2)Cc2cccc1c2 [DP-846] |  |  | 34 nm/s | 310 µL/min/mg
CC(C)C[C@@H]1NC(=O)[C@H](Cc2ccccc2)N(C)C(=O)[C@H]([C@@H](C)O)NC(=O)[C@H](Cc2ccccc2)N(C)C(=O)[C@H](C)N(C)C(=O)[C@H](CC(C)C)N(C)C(=O)C[C@@H](C(=O)N2CCCCC2)NC(=O)[C@@H]2CCCN2C1=O [DP-688] ([NMeL][NMeA][NMeF]T[NMeF]LPD-Piperidide; lactam N-8) |  |  | 170 nm/s | 23 µL/min/mg
CC(C)C[C@H]1C(=O)N(C)[C@@H](C)C(=O)N[C@@H]([C@@H](C)O)C(=O)N(C)[C@@H](C)C(=O)N(C)[C@@H](CC(C)C)C(=O)N(C)[C@@H](Cc2ccccc2)C(=O)N[C@H](C(=O)N2CCCCC2)CC(=O)N(C)[C@H](C)C(=O)N(C)[C@@H](C)C(=O)N[C@@H](C)C(=O)N(C)[C@@H](C)C(=O)N1C [DP-476] ([dNMeA][NMeA]A[NMeA][NMeL][NMeA]T[NMeA][NMeL][NMeF]D-Piperidide; lactam N-11) | 28 nm/s | 10 µL/min/mg |  | 
CC(C)C[C@@H]1NC(=O)[C@H](CC(C)C)N(C)C(=O)[C@H](CC(C)C)N(C)C(=O)C[C@@H](C(=O)N2CCCCC2)NC(=O)[C@H](Cc2ccccc2)N(C)C(=O)C2CCCN2C(=O)[C@H]([C@@H](C)O)NC(=O)[C@H](Cc2ccccc2)N(C)C1=O (stereo partly drawn) [DP-706] ([NMeL][NMeL]L[NMeF]T[ξP][NMeF]D-Piperidide; lactam N-8) |  |  | 480 nm/s | 264 µL/min/mg
CC(C)C[C@@H]1NC(=O)[C@H](CC(C)C)N(C)C(=O)[C@H](C)NC(=O)[C@H](C(C)C)N(C)C(=O)CN(C)C(=O)[C@H](Cc2ccccc2)NC(=O)[C@H]([C@@H](C)O)NC(=O)[C@H](CC(C)C)N(C)C(=O)[C@@H](C)N(C)C(=O)C[C@@H](C(=O)N2CCCCC2)NC(=O)[C@H](CC(C)C)N(C)C1=O [DP-418] ([dNMeA][NMeL]TF[Sar][NMeV]A[NMeL]L[NMeL]D-Piperidide; lactam N-11) | 280 nm/s | 71 µL/min/mg |  | 
